From BindingDB's records for patent US20260034094 (Kojin Therapeutics, 2026)

Molecular target: T1, Glutamate--cysteine ligase catalytic subunit (Homo sapiens, UniProt P48506)
T1 sequence (P48506 whole entry): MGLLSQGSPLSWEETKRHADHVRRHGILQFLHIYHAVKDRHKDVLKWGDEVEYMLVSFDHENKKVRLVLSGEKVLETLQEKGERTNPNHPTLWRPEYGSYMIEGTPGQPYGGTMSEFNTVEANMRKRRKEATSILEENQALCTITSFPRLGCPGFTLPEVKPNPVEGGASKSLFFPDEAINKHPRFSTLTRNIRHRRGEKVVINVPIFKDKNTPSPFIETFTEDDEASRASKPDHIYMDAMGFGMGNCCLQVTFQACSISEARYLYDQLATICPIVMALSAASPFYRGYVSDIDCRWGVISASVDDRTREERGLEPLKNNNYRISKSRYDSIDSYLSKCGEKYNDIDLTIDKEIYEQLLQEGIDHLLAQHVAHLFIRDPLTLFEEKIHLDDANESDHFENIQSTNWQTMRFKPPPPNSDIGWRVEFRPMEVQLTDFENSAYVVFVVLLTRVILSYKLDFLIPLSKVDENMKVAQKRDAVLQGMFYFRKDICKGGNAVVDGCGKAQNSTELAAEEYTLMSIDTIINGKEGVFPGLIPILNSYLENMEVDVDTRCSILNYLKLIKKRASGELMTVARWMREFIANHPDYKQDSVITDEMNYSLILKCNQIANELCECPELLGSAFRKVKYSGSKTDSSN
Test: GCL Enzyme Profiling Assay
Method: Compound in pure DMSO was stamped in assay plates (Greiner black 384-well) or appropriate containers using a D300e digital dispenser (TECAN) and the final DMSO concentration was normalized to 1%. A 5 mL, or in the present case, 5 μL mixture of human recombinant GCL (final concentration: 5 nM) and ATP (final concentration: 0.6 mM) was added and the solution was incubated at room temperature (22° C.) for 1 h. […] The reaction was stopped after 1 h or in the present case, 2 h by addition of 5 mL, or in the present case, 5 μL ADP GLO Reagent (Promega). The resulting solution was incubated for 2 h at room temperature. This was then followed by addition of 5 mL, or in the present case, 5 μL ADP GLO Detection. After incubation at room temperature for 30 min, the plates were read on a plate reader (PheraStar) using a luminescence protocol to quantify the GCL enzyme activity from each reaction solution.

| SMILES | IC50 [µM] |
| --- | --- |
| N=S(=O)(CCC(c1ccc(S(=O)(=O)Cc2ccccc2)cc1)C(F)(F)F)CC[C@H](N)C(=O)O (stereo partly drawn) [US20260034094, Compound 291] | < 20 |
| N=S(=O)(CCC(c1cccc2ccccc12)C(F)(F)F)CC[C@H](N)C(=O)O (stereo partly drawn) [US20260034094, Compound 311] | < 20 |
| N=S(=O)(CCC(c1ccccn1)C(F)(F)F)CC[C@H](N)C(=O)O (stereo partly drawn) [US20260034094, Compound 313] | < 20 |
| N=S(=O)(CCC(c1ccc(-c2ccccc2)cc1Cl)C(F)(F)F)CC[C@H](N)C(=O)O (stereo partly drawn) [US20260034094, Compound 315] | < 20 |
| N=S(=O)(CCC(c1ccc(Oc2ccccc2)cc1)C(F)(F)F)CC[C@H](N)C(=O)O (stereo partly drawn) [US20260034094, Compound 316] | < 20 |
| N=S(=O)(CCC(c1ccc(-c2ccc(Cl)cc2Cl)cn1)C(F)(F)F)CC[C@H](N)C(=O)O (stereo partly drawn) [US20260034094, Compound 317] | < 20 |
| N=S(=O)(CCC(c1ccc(Oc2ccc(Cl)cc2Cl)cc1)C(F)(F)F)CC[C@H](N)C(=O)O (stereo partly drawn) [US20260034094, Compound 318] | < 20 |
| N=S(=O)(CCC(CO)C(F)(F)F)CC[C@H](N)C(=O)O (stereo partly drawn) [US20260034094, Compound 320] | < 20 |
| N=S(=O)(CC[C@H](N)C(=O)O)CCC(O)(c1ccn(-c2ccc(Cl)cc2Cl)n1)C(F)(F)F (stereo partly drawn) [US20260034094, Compound 336] | < 20 |
| N=S(=O)(CC[C@H](N)C(=O)O)CCC(O)(c1cc(-c2ccc(Cl)cc2Cl)cs1)C(F)(F)F (stereo partly drawn) [US20260034094, Compound 337] | < 20 |
| N=S(=O)(CC[C@H](N)C(=O)O)CCC(O)(c1ccc(OC2CCCCC2)cc1)C(F)(F)F (stereo partly drawn) [US20260034094, Compound 339] | < 20 |
| N=S(=O)(CC[C@H](N)C(=O)O)CCC(O)([C@H]1CC[C@H](c2ccc(Cl)cc2Cl)CC1)C(F)(F)F (stereo partly drawn) [US20260034094, Compound 340] | < 20 |
| N=S(=O)(CC[C@H](N)C(=O)O)CCC(O)([C@H]1CC[C@@H](c2ccc(Cl)cc2Cl)CC1)C(F)(F)F (stereo partly drawn) [US20260034094, Compound 341] | < 20 |
| N=S(=O)(CC[C@H](N)C(=O)O)CCC(O)(c1ccc(Oc2ccc(Cl)cc2Cl)cc1)C(F)(F)F (stereo partly drawn) [US20260034094, Compound 342] | < 20 |
| N=S(=O)(CC[C@H](N)C(=O)O)CCC(O)(c1cnc(-c2ccc(Cl)cc2Cl)nc1)C(F)(F)F (stereo partly drawn) [US20260034094, Compound 366] | < 20 |
| N=S(=O)(CC[C@H](N)C(=O)O)CCC(O)(c1cnc(-c2ccc(Cl)cc2Cl)cn1)C(F)(F)F (stereo partly drawn) [US20260034094, Compound 367] | < 20 |
| N=S(=O)(CC[C@H](N)C(=O)O)CCC(O)(c1ccc2ccccc2n1)C(F)(F)F (stereo partly drawn) [US20260034094, Compound 373] | < 20 |
| N=S(=O)(CCC(c1ccc2[nH]nnc2c1)C(F)(F)F)CC[C@H](N)C(=O)O (stereo partly drawn) [US20260034094, Compound 393] | < 20 |
| N=S(=O)(CCC(c1ccccc1O)C(F)(F)F)CC[C@H](N)C(=O)O (stereo partly drawn) [US20260034094, Compound 397] | < 20 |

| SMILES | IC50 [µM] |
| --- | --- |
| N=S(=O)(CCC(c1ccc2[nH]cnc2c1)C(F)(F)F)CC[C@H](N)C(=O)O (stereo partly drawn) [US20260034094, Compound 399] | < 20 |
| N=S(=O)(CC[C@H](N)C(=O)O)CCC1(c2ccc(Oc3ccc(Cl)cc3Cl)cc2)CCC1 (stereo partly drawn) [US20260034094, Compound 403] | < 20 |
| N=S(=O)(CCC(N1CCN(c2ccc(Cl)cc2Cl)CC1)C(F)(F)F)CC[C@H](N)C(=O)O (stereo partly drawn) [US20260034094, Compound 423] | < 20 |
| Cc1ccccc1-c1ccc(C(O)(CCS(=N)(=O)CC[C@H](N)C(=O)O)C(F)(F)F)cc1 (stereo partly drawn) [US20260034094, Compound 429] | < 20 |
| Cc1cc(Cl)ccc1-c1ccc(C(O)(CCS(=N)(=O)CC[C@H](N)C(=O)O)C(F)(F)F)cc1 (stereo partly drawn) [US20260034094, Compound 430] | < 20 |
| N=S(=O)(CC[C@H](N)C(=O)O)CCC(O)(c1ccc(-c2ccc(Cl)cc2)cc1)C(F)(F)F (stereo partly drawn) [US20260034094, Compound 431] | < 20 |
| Cc1ccc(-c2ccc(C(O)(CCS(=N)(=O)CC[C@H](N)C(=O)O)C(F)(F)F)cc2)c(Cl)c1 (stereo partly drawn) [US20260034094, Compound 432] | < 20 |
| Cn1ncc(-c2ccc(C(O)(CCS(=N)(=O)CC[C@H](N)C(=O)O)C(F)(F)F)cc2)cc1=O (stereo partly drawn) [US20260034094, Compound 433] | < 20 |
| N=S(=O)(CC[C@H](N)C(=O)O)CCC(O)(c1cccc(-c2ccccc2)c1)C(F)(F)F (stereo partly drawn) [US20260034094, Compound 435] | < 20 |
| Cc1ccc(-c2ccc(C(O)(CCS(=N)(=O)CC[C@H](N)C(=O)O)C(F)(F)F)cc2)c(F)c1 (stereo partly drawn) [US20260034094, Compound 437] | < 20 |
| Cc1cc(C(O)(CCS(=N)(=O)CC[C@H](N)C(=O)O)C(F)(F)F)ccc1-c1ccc(Cl)cc1Cl (stereo partly drawn) [US20260034094, Compound 443] | < 20 |
| N=S(=O)(CC[C@H](N)C(=O)O)CCC(O)(c1ncc(-c2ccc(Cl)cc2Cl)cn1)C(F)(F)F (stereo partly drawn) [US20260034094, Compound 462] | < 20 |
| N=S(=O)(CC[C@H](N)C(=O)O)CCC(O)(c1ncc(-c2ccccc2)cn1)C(F)(F)F (stereo partly drawn) [US20260034094, Compound 467] | < 20 |
| N[C@@H](CCS(=O)(=O)CCC(O)(c1ncc(-c2ccc(Cl)cc2Cl)cn1)C(F)(F)F)C(=O)O (stereo partly drawn) [US20260034094, Compound 470] | < 20 |
| Cc1ccccc1-c1ccc(C(O)(CCS(=N)(=O)CC[C@H](N)C(=O)O)C(F)(F)F)nc1 (stereo partly drawn) [US20260034094, Compound 471] | < 20 |
| Cn1cc(-c2ccc(C(O)(CCS(=N)(=O)CC[C@H](N)C(=O)O)C(F)(F)F)nc2)cn1 (stereo partly drawn) [US20260034094, Compound 472] | < 20 |
| Cc1cc(Cl)ccc1-c1cnc(C(O)(CCS(=N)(=O)CC[C@H](N)C(=O)O)C(F)(F)F)nc1 (stereo partly drawn) [US20260034094, Compound 474] | < 20 |
| N=S(=O)(CC[C@H](N)C(=O)O)CCC(O)(c1ccc(C2CCCCC2)cn1)C(F)(F)F (stereo partly drawn) [US20260034094, Compound 476] | < 20 |
| N=S(=O)(CC[C@H](N)C(=O)O)CCC(O)(c1ccc(-c2ccco2)cn1)C(F)(F)F (stereo partly drawn) [US20260034094, Compound 481] | < 20 |
